One block for each compound: values may come before it.
What was measured:
14-3-3γ = target: T1, 14-3-3γ (Homo sapiens, UniProt P61981); assay: SPR, PEAK peptides binding to immobilised 14-3-3γ; conditions: peptide analyte over amine-coupled 14-3-3γ (CM5); Biacore S200, HBS-TP pH 7.4, 20 °C; steady-state 1:1 fit; mean ± S.E.M.
T1 construct: 14-3-3γ (UniProt P61981-1; residues 1–247); 8-His tag with TEV protease cleavage site (N); made in house; host or cells: E. coli C41 (DE3)
T1 sequence (P61981 1-247): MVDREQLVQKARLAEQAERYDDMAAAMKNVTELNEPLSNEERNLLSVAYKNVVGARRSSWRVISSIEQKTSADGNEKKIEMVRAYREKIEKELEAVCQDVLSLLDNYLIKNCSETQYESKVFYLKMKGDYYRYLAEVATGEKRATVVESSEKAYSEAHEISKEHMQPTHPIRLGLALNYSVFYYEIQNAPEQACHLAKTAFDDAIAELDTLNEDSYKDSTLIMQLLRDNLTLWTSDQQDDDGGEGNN
Description: (§1) Purified […]3 was diluted to 5 μg ml^-1 in 10 mM sodium acetate pH 4.0 and amine coupled at 25 °C to a Series S CM5 sensor chip, in HBS-N running buffer (20 mM HEPES pH 7.4, 150 mM NaCl) to a final immobilization level of 1100-1400 response units (RU), followed by surface deactivation using 1 M ethanolamine. A blank activation/deactivation was used for the reference surface. […] Samples were injected in a multi-cycle run (flow rate 30 μl min^-1, contact time of 60 s, dissociation 120 s) without regeneration. Sensorgrams were double referenced, and steady-state binding data fitted using a 1:1 binding model using Biacore S200 Evaluation Software (Cytiva, v. 1.1). […] Representative sensorgrams and fitted dissociation constant (KD) values, depicted as mean ± S.E.M.

14-3-3η = target: T2, 14-3-3η (Homo sapiens, UniProt Q04917); assay: SPR, PEAK tandem peptides binding to immobilised 14-3-3η; conditions: peptide analyte over amine-coupled 14-3-3η (CM5); Biacore S200, HBS-TP pH 7.4, 20 °C; steady-state 1:1 fit; mean ± S.E.M.; read-out: SPR KD, 14-3-3η (eta)
T2 construct: 14-3-3η (UniProt Q04917-1; residues 1–246); 8-His tag with TEV protease cleavage site (N); made in house; host or cells: E. coli C41 (DE3)
T2 sequence (Q04917 1-246): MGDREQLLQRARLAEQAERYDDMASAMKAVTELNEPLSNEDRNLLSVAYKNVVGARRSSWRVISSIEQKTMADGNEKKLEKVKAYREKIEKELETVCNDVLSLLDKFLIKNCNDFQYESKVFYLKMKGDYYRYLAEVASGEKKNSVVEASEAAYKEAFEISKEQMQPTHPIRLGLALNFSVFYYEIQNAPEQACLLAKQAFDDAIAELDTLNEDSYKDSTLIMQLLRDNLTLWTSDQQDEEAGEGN
Description: as §1

14-3-3ε = target: T3, 14-3-3ε (Homo sapiens, UniProt P62258); assay: SPR, PEAK tandem peptides binding to immobilised 14-3-3ε; conditions: peptide analyte over amine-coupled 14-3-3ε (CM5); Biacore S200, HBS-TP pH 7.4, 20 °C; steady-state 1:1 fit; mean ± S.E.M.; read-out: SPR KD, 14-3-3ε (epsilon)
T3 construct: 14-3-3ε (UniProt P62258-1; residues 1–255); 8-His tag with TEV protease cleavage site (N); made in house; host or cells: E. coli C41 (DE3)
T3 sequence (P62258 1-255): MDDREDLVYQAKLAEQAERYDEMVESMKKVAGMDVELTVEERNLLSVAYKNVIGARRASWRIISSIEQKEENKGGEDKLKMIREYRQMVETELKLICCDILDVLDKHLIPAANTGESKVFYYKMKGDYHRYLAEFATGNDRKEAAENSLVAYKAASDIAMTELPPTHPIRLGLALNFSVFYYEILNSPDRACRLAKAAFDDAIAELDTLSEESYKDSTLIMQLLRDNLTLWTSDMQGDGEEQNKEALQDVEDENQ
Description: Purified […]3 was diluted to 5 μg ml^-1 in 10 mM sodium acetate pH 4.0 and amine coupled at 25 °C to a Series S CM5 sensor chip, in HBS-N running buffer (20 mM HEPES pH 7.4, 150 mM NaCl) to a final immobilization level of 1100-1400 response units (RU), followed by surface deactivation using 1 M ethanolamine. A blank activation/deactivation was used for the reference surface. […] PEAK PRM peptides: […] Samples were injected in a multi-cycle run (flow rate 30 μl min^-1, contact time of 60 s, dissociation 120 s) without regeneration. Sensorgrams were double referenced, and steady-state binding data fitted using a 1:1 binding model using Biacore S200 Evaluation Software (Cytiva, v. 1.1). […] Representative sensorgrams and fitted dissociation constant (KD) values, depicted as mean ± S.E.M.

CrkII^NSH3 [1] = target: T4, CrkII^NSH3 (Homo sapiens, UniProt P46108); assay: SPR, CrkII NSH3 binding to immobilised PEAK proteins; conditions: read-out: CrkII NSH3 SPR KD; interactor as analyte over biotinylated PEAK protein captured with biotin CAPture kit; Biacore 8K+, HBS-TP, 20 °C; steady-state fit; mean ± SD (N = 2); read-out: CrkII-SH2 SPR KD
T4 construct: CrkII^NSH3; UniProt P46108-1, residues 134–191; 8-His tag with TEV protease cleavage site (N); made in house; host or cells: E. coli C41 (DE3)
Description: (§2) SPR binding studies of PEAK PRM peptides to CrkII^NSH3 were performed using a Biacore S200 Instrument (Cytiva). Purified CrkII^NSH3 was diluted to 5 µg ml^−1 in 10 mM sodium acetate pH 4.0 and amine coupled at 25 °C to a Series S CM5 sensor chip, in HBS-N running buffer (20 mM HEPES pH 7.4, 150 mM NaCl) to a final immobilization level of 1100–1400 response units (RU), followed by surface deactivation using 1 M ethanolamine. A blank activation/deactivation was used for the reference surface. Peptide binding studies were performed at 20 °C in HBS-TP running buffer (20 mM HEPES pH 7.4, 150 mM NaCl, 1 mM TCEP, 0.005% (v/v) Tween-P20). […] Peptide stocks were further diluted to in running buffer to 10 or 20 µM and prepared as a 11-point concentration series (2-fold serial dilution, […] for PEAK PRM peptides, or 20 µM–20 nM for PEAK tandem motif peptides). Samples were injected in a multi-cycle run (flow rate 30 µl min^−1, contact time of 60 s, dissociation 120 s) without regeneration. Sensorgrams were double referenced, and steady-state binding data fitted using a 1:1 binding model using Biacore S200 Evaluation Software (Cytiva, v. 1.1).
(§3) SPR binding studies of PEAK proteins to full length CrkII/Grb2 and sub-domains were performed using a Biacore 8K+ Instrument (Cytiva) and analyzed using Biacore Insight Evaluation Software (v. 3.0.12.15655). […] Binding studies and steady-state data analysis were performed as described for CrkII^NSH3 with the inclusion of an additional surface regeneration step (60 s injection of 1 M NaCl) between cycles.

CrkII^SH2 = target: T5, CrkII^SH2 (Homo sapiens, UniProt P46108); assay: SPR, CrkII SH2 binding to immobilised PEAK proteins; conditions: interactor as analyte over biotinylated PEAK protein (biotin CAPture); Biacore 8K+, HBS-TP with 500 mM NaCl, 20 °C; steady-state fit; mean ± S.E.M. (N = 3)
T5 construct: CrkII^SH2; UniProt P46108-1, residues 6–120; 8-His tag with TEV protease cleavage site (N); made in house; host or cells: E. coli C41 (DE3)
Description: as §2, §3

14-3-3ɣ = assay: SPR, 14-3-3ɣ binding to immobilised PEAK proteins; parameters: species or system human; conditions: 14-3-3ɣ analyte 0.46–1000 nM, multi-cycle, over immobilised biotinylated PEAK protein; Biacore 8K+, 20 °C; KD only an estimate (bivalent analyte model); N = 3
Description: PEAK proteins and adapters proteins (full length or individual domains) were biotinylated using EZ-Link™ NHS-PEG4-Biotin (Thermo Fisher) at a 1:1 molar ratio (100 µM) for 1 h at room temperature, then excess biotin was removed by buffer exchange using a Zeba™ Spin Desalting Column (Thermo Fisher) into HBS-T buffer (20 mM HEPES pH 7.4, 150 mM NaCl, 1 mM TCEP).
SPR binding studies of PEAK proteins to full length CrkII/Grb2 and sub-domains were performed using a Biacore 8K+ Instrument (Cytiva) and analyzed using Biacore Insight Evaluation Software (v. 3.0.12.15655). […] Biotinylated PEAK proteins (with or without Src phosphorylation; 500 nM in HBS-TP) were immobilized using a biotin CAPture kit (Cytiva) in HBS-TP running buffer at 20 °C. Binding studies and steady-state data analysis were performed as described for CrkII^NSH3 with the inclusion of an additional surface regeneration step (60 s injection of 1 M NaCl) between cycles. For Grb2^FL, Grb2^SH2, CrkII^SH2, CrkII^FL monomer and CrkII^FL dimer, to reduce nonspecific interactions the HBS-TP running buffer was supplemented with additional NaCl to a final concentration of 500 mM.
Binding studies for 14-3-3ɣ were undertaken in the same way in multi cycle mode (8 point, 3-fold serial dilution series, 0.46–1000 nM, 60 s contact time, 300 s dissociation).

CrkII^NSH3 [2] = target: T4, CrkII^NSH3; assay: ITC, CrkII NSH3 titrated into PEAK3 tandem peptides (binary) or peptide:14-3-3γ complexes (ternary); type: binding; conditions: individual run, repeat 1, CrkII N-SH3 400 µM into the labelled complex 16.8 µM (Titrations 10, 12, 16)
Description: ITC binding experiments were conducted using a MicroCal iTC200 instrument (Malvern Instruments). Titrations were conducted at 25 °C in reverse mode (peptide in cell, protein in syringe) and consisted of 19 injections of 2 μl […] at a rate of 2 s μl^−1 at 90 s time intervals, whilst stirring at 1000 rpm. An initial injection of 0.4 μl protein was made and discarded during data analysis. Proteins (14-3-3ɣ or CrkII^NSH3) were first dialyzed overnight at 4 °C into ITC buffer (20 mM HEPES pH 7.4, 150 mM NaCl, 1 mM TCEP), filtered and degassed under vacuum. […] Following the first titration, excess solution was removed from the cell, and the syringe was washed and dried. […] All data were fitted to a single binding site model to obtain the stoichiometry (N), dissociation constant (KD) and the enthalpy of binding (ΔH), using MicroCal PEAQ-ITC Analysis software (v.1.41).

T4 sequence (P46108 134-191): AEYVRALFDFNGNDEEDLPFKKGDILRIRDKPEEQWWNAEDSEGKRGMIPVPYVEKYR
T5 sequence (P46108 6-120): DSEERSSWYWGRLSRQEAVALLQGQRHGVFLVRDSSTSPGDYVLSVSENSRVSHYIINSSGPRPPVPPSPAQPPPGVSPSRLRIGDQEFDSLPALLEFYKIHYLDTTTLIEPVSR

- SPR KD, 14-3-3γ (gamma) (14-3-3γ): No binding
Compound: CC[C@H](C)[C@H](NC(=O)[C@H](CCCCN)NC(=O)[C@H](CCCCN)NC(=O)[C@@H]1CCCN1C(=O)[C@H](CC(C)C)NC(=O)[C@@H]1CCCN1C(=O)[C@@H]1CCCN1C(=O)[C@@H]1CCCN1C(=O)[C@H](CC(C)C)NC(=O)[C@@H]1CCCN1C(C)=O)C(=O)N[C@@H](CC(C)C)C(=O)N[C@H](C(=O)N[C@@H](CCCNC(=N)N)C(N)=O)[C@@H](C)O (single isomer, unassigned) [PEAK3^54–66]

- Kd (14-3-3η): 1.9 µM
- Kd (14-3-3ε): 7.4 µM
Compound: CC[C@H](C)[C@H](NC(=O)[C@H](CCCCN)NC(=O)[C@H](CCCCN)NC(=O)[C@H](CCC(N)=O)NC(=O)[C@@H]1CCCN1C(=O)[C@H](CC(C)C)NC(=O)[C@@H]1CCCN1C(=O)[C@@H]1CCCN1C(=O)[C@@H]1CCCN1C(C)=O)C(=O)N[C@H](C(=O)N[C@@H](CO)C(=O)N[C@@H](CCCNC(=N)N)C(=O)N[C@@H](C)C(=O)N[C@@H](C)C(=O)N[C@@H](COP(=O)(O)O)C(=O)N[C@@H](CO)C(=O)N1CCC[C@H]1C(=O)N[C@@H](CC(=O)O)C(=O)NCC(=O)N[C@@H](Cc1ccccc1)C(N)=O)C(C)C (single isomer, unassigned) [PEAK2^tandem-pS826]

Compound: PEAK3-FL E.coli: full length human PEAK3 (1–473) purified from E. coli, no bound 14-3-3
- Kd (CrkII^NSH3 [1]): 9.6 µM
- SPR KD, CrkII-SH2 (CrkII^SH2): No binding
- SPR KD, 14-3-3ɣ (14-3-3ɣ): No binding

- ITC -T∆S (CrkII^NSH3 [2]): -3.23 kcal/mol
- ITC N (sites) (CrkII^NSH3 [2]): 0.69
- ITC ∆G (CrkII^NSH3 [2]): -7.36 kcal/mol
- ITC ∆H (CrkII^NSH3 [2]): -4.16 kcal/mol
Compound: CC[C@H](C)[C@H](NC(=O)[C@H](CCCCN)NC(=O)[C@H](CCCCN)NC(=O)[C@@H]1CCCN1C(=O)[C@H](CC(C)C)NC(=O)[C@@H]1CCCN1C(=O)[C@@H]1CCCN1C(=O)[C@@H]1CCCN1C(=O)[C@H](CC(C)C)NC(=O)[C@@H]1CCCN1C(C)=O)C(=O)N[C@@H](CC(C)C)C(=O)N[C@H](C(=O)N[C@@H](CCCNC(=N)N)C(=O)N[C@H](C(=O)N[C@@H](CCC(N)=O)C(=O)N[C@@H](COP(=O)(O)O)C(=O)N[C@@H](CC(C)C)C(=O)N1CCC[C@H]1C(=O)N[C@H](C(=O)N[C@@H](CCCNC(=N)N)C(=O)N[C@@H](CCCNC(=N)N)C(N)=O)[C@@H](C)O)[C@@H](C)O)[C@@H](C)O (single isomer, unassigned) [PEAK3 tandem-pS69 : 14-3-3γ (K50E)]

- Kd (14-3-3ε): 0.78 µM
Compound: CC[C@H](C)[C@H](NC(=O)[C@H](CCCCN)NC(=O)[C@H](CCCCN)NC(=O)[C@@H]1CCCN1C(=O)[C@H](CC(C)C)NC(=O)[C@@H]1CCCN1C(=O)[C@@H]1CCCN1C(=O)[C@@H]1CCCN1C(=O)[C@H](CC(C)C)NC(=O)[C@@H]1CCCN1C(C)=O)C(=O)N[C@@H](CC(C)C)C(=O)N[C@H](C(=O)N[C@@H](CCCNC(=N)N)C(=O)N[C@H](C(=O)N[C@@H](CCC(N)=O)C(=O)N[C@@H](COP(=O)(O)O)C(=O)N[C@@H](CC(C)C)C(=O)N1CCC[C@H]1C(=O)N[C@H](C(=O)N[C@@H](CCCNC(=N)N)C(=O)N[C@@H](CCCNC(=N)N)C(N)=O)[C@@H](C)O)[C@@H](C)O)[C@@H](C)O (single isomer, unassigned) [PEAK3^tandem-pS69]
